Legend:
[1] = target: PD-1/PD-L1 protein/protein interaction (recombinant human PD-L1 and human PD-1) (Homo sapiens (Human), UniProt Q9NZQ7); test: Homogeneous Time-Resolved Fluorescence (HTRF) PD-1/PD-L1 binding assay
Method in brief: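 Human PD-L1 (19-238, C-His; 10 nM final) and PD-1 (25-167, C-Fc; 3 nM final) preincubated 40 min with inhibitor in PBS pH 7.4, 0.05% Tween-20, 0.1% BSA, 1% DMSO, 25 °C. Eu-anti-human IgG (1 nM) and anti-His-APC (20 nM) added for 60 min; 665/620 nm ratio; IC50 from percent-control curves.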

[2] = tested on: U2OS/PD-L1 cells and Jurkat-PD-1-SHP cells; test: Src homology region 2 domain-containing phosphatase (SHP) assay; type: cell-based; settings: Homo sapiens, U2OS
Method in brief: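 U2OS/PD-L1 and Jurkat-PD-1-SHP cells (5000 each per well) were co-incubated with compound for 2 h at 37 °C in RPMI1640 with 1% FBS, 0.05% DMSO final. PathHunter chemiluminescence was read after 1 h at room temperature, and IC50 was fitted from percent of DMSO-control activity.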

[3] = tested on: PD-L1 aAPC/CHO-K1 cells and Jurkat-PD-1-NFAT effector cells; test: Nuclear factor of activated T-cells (NFAT) assay; type: cell-based; settings: Cricetulus griseus, CHO-K1
Method in brief: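 CHO-K1 cells expressing PD-L1 aAPC were co-cultured with Jurkat-PD-1-NFAT effector cells in RPMI 1640 with 1% FBS and compound (0.4% DMSO; top concentration 2 μM) for 24 h at 37 °C. Bio-Glo luminescence was read, fold induction normalised to DMSO wells, and EC50 fitted from percent of control compound activity.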

PD-L1 = PD-L1 (Homo sapiens (Human), UniProt Q9NZQ7); test: PD-L1 whole blood internalization assay; type: cell-based; settings: 24 HR, PD-L1 expression on CD14+ cells, human interferon γ
PD-L1, sequence (Q9NZQ7 19-290): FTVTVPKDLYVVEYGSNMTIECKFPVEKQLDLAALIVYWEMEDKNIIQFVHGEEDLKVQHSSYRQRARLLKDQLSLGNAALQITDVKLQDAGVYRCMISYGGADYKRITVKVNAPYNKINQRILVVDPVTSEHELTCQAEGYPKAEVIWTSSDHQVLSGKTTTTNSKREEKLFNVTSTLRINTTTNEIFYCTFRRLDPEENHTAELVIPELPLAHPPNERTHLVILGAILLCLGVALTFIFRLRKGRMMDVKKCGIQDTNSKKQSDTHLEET
Protocol: Example D. PD-L1 Whole Blood Internalization Assay
To determine PD-L1 internalization in human whole blood, normal human blood (Biological Specialty Corp, Colmar. Pa.) was incubated in the presence or absence of a concentration range of test compounds and 1 ng/ml human interferon γ (R&D Systems Inc. Minn. […] Blood was then stained with PD-L1 (MIH1, eBioscience; or BD Biosciences San Jose, Calif.), CD14 (Life Technologies, Carlsbad, Calif.) for 30 minutes in the dark at room temperature. Whole Blood/red cells were lysed/fixed (lysis buffer BD Biosciences) for 5 minutes at 37° C. in the dark and then centrifuged at 1600 RPM for 5 minutes. Cells were resuspended in Stain Buffer (BD Bioscience, San Jose, Calif.) and transferred into 96 well round bottom plates (Corning). Cells were gated on CD14+(BD Biosciences) and PD-L1 expression determined by mean fluorescence intensity (MFI) (BD LSRFortessa™ X-20). IC50 determination was performed by fitting the curve of compound percent inhibition versus the log of the compound concentration using the GraphPad Prism 7.0 software.

PD-1/PD-L1 protein/protein interaction (recombinant human PD-L1 and human PD-1), sequence (Q9NZQ7 19-238): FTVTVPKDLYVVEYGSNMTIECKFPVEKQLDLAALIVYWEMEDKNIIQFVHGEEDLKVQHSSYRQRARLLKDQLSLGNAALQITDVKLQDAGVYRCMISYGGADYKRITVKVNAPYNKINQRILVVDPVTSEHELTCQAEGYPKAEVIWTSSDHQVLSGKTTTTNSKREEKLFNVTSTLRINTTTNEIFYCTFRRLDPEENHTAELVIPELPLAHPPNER

IC50 [1]	IC50 [2]	IC50 (PD-L1)	Compound	EC50 [3]
≤ 5 nM	≤ 10 nM	≤ 10 nM	Cn1c(C(=O)Nc2cccc(-c3cccc(NC(=O)c4nc5c(n4C)CCN(CCC46CCC(C(=O)O)(CC4)C6)C5)c3Cl)c2Cl)nc2c1CCNC2 [Example 1, 4-(2-(2-((2,2′-dichloro-3′-(1-methyl-4,5,6,7-tetrahydro-1H-imidazo[4,5-c]pyridine-2-carboxamido)-[1,1′-biphenyl]-3-yl)carbamoyl)-1-methyl-1,4,6,7-tetrahydro-5H-imidazo[4,5-c]pyridin-5-yl)ethyl)bicyclo[2.2.1]heptane-1-carboxylic Acid]	10 to 100 nM
≤ 5 nM	≤ 10 nM	10 to 100 nM	Cn1c(C(=O)Nc2cccc(-c3cccc(NC(=O)c4nc5c(n4C)CCN(C4CCOCC4)C5)c3Cl)c2Cl)nc2c1CCN(CCC13CCC(C(=O)O)(CC1)C3)C2 [Example 2, 4-(2-(2-((2,2′-dichloro-3′-(1-methyl-5-(tetrahydro-2H-pyran-4-yl)-4,5,6,7-tetrahydro-1H-imidazo[4,5-c]pyridine-2-carboxamido)-[1,1′-biphenyl]-3-yl)carbamoyl)-1-methyl-1,4,6,7-tetrahydro-5H-imidazo[4,5-c]pyridin-5-yl)ethyl)bicyclo[2.2.1]heptane-1-carboxylic Acid]	10 to 100 nM
≤ 5 nM	≤ 10 nM	100 to 500 nM	Cn1c(C(=O)Nc2cccc(-c3cccc(NC(=O)c4nc5c(n4C)CCN(C4CCN(S(N)(=O)=O)CC4)C5)c3Cl)c2Cl)nc2c1CCN(CCC13CCC(C(=O)O)(CC1)C3)C2 [Example 8, 4-(2-(2-((2,2′-dichloro-3′-(1-methyl-5-(1-sulfamoylpiperidin-4-yl)-4,5,6,7-tetrahydro-1H-imidazo[4,5-c]pyridine-2-carboxamido)-[1,1′-biphenyl]-3-yl)carbamoyl)-1-methyl-1,4,6,7-tetrahydro-5H-imidazo[4,5-c]pyridin-5-yl)ethyl)bicyclo[2.2.1]heptane-1-carboxylic acid]	10 to 100 nM
≤ 5 nM	≤ 10 nM	10 to 100 nM	Cn1c(C(=O)Nc2cccc(-c3cccc(NC(=O)c4nc5c(n4C)CCN(Cc4cc[nH]n4)C5)c3Cl)c2Cl)nc2c1CCN(CCC13CCC(C(=O)O)(CC1)C3)C2 [Example 9, 4-(2-(2-((3′-(5-((1H-pyrazol-3-yl)methyl)-1-methyl-4,5,6,7-tetrahydro-1H-imidazo[4,5-c]pyridine-2-carboxamido)-2,2′-dichloro-[1,1′-biphenyl]-3-yl)carbamoyl)-1-methyl-1,4,6,7-tetrahydro-5H-imidazo[4,5-c]pyridin-5-yl)ethyl)bicyclo[2.2.1]heptane-1-carboxylic acid]	10 to 100 nM
≤ 5 nM	≤ 10 nM	10 to 100 nM	Cn1c(C(=O)Nc2cccc(-c3cccc(NC(=O)c4nc5c(n4C)CCN(C(CO)CO)C5)c3Cl)c2Cl)nc2c1CCN(CCC13CCC(C(=O)O)(CC1)C3)C2 [Example 10, 4-(2-(2-((2,2′-dichloro-3′-(5-(1,3-dihydroxypropan-2-yl)-1-methyl-4,5,6,7-tetrahydro-1H-imidazo[4,5-c]pyridine-2-carboxamido)-[1,1′-biphenyl]-3-yl)carbamoyl)-1-methyl-1,4,6,7-tetrahydro-5H-imidazo[4,5-c]pyridin-5-yl)ethyl)bicyclo[2.2.1]heptane-1-carboxylic acid]	10 to 100 nM
5 to 10 nM	10 to 100 nM	100 to 500 nM	Cn1c(C(=O)Nc2cccc(-c3cccc(NC(=O)c4nc5c(n4C)CCN(C[C@@H](O)CO)C5)c3Cl)c2Cl)nc2c1CCN(CCC13CCC(C(=O)O)(CC1)C3)C2 [Example 11, (R)-4-(2-(2-((2,2′-dichloro-3′-(5-(2,3-dihydroxypropyl)-1-methyl-4,5,6,7-tetrahydro-1H-imidazo[4,5-c]pyridine-2-carboxamido)-[1,1′-biphenyl]-3-yl)carbamoyl)-1-methyl-1,4,6,7-tetrahydro-5H-imidazo[4,5-c]pyridin-5-yl)ethyl)bicyclo[2.2.1]heptane-1-carboxylic acid]	10 to 100 nM
≤ 5 nM	≤ 10 nM	10 to 100 nM	Cn1c(C(=O)Nc2cccc(-c3cccc(NC(=O)c4nc5c(n4C)CCN(C[C@H](O)CO)C5)c3Cl)c2Cl)nc2c1CCN(CCC13CCC(C(=O)O)(CC1)C3)C2 [Example 12, (S)-4-(2-(2-((2,2′-dichloro-3′-(5-(2,3-dihydroxypropyl)-1-methyl-4,5,6,7-tetrahydro-1H-imidazo[4,5-c]pyridine-2-carboxamido)-[1,1′-biphenyl]-3-yl)carbamoyl)-1-methyl-1,4,6,7-tetrahydro-5H-imidazo[4,5-c]pyridin-5-yl)ethyl)bicyclo[2.2.1]heptane-1-carboxylic acid]	10 to 100 nM
≤ 5 nM	≤ 10 nM	10 to 100 nM	C[C@@H](O)CN1CCc2c(nc(C(=O)Nc3cccc(-c4cccc(NC(=O)c5nc6c(n5C)CCN(CCC57CCC(C(=O)O)(CC5)C7)C6)c4Cl)c3Cl)n2C)C1 [Example 13, (R)-4-(2-(2-((2,2′-dichloro-3′-(5-(2-hydroxypropyl)-1-methyl-4,5,6,7-tetrahydro-1H-imidazo[4,5-c]pyridine-2-carboxamido)-[1,1′-biphenyl]-3-yl)carbamoyl)-1-methyl-1,4,6,7-tetrahydro-5H-imidazo[4,5-c]pyridin-5-yl)ethyl)bicyclo[2.2.1]heptane-1-carboxylic Acid]	≤ 10 nM
≤ 5 nM	≤ 10 nM	10 to 100 nM	C[C@H](O)CN1CCc2c(nc(C(=O)Nc3cccc(-c4cccc(NC(=O)c5nc6c(n5C)CCN(CCC57CCC(C(=O)O)(CC5)C7)C6)c4Cl)c3Cl)n2C)C1 [Example 14, (S)-4-(2-(2-((2,2′-dichloro-3′-(5-(2-hydroxypropyl)-1-methyl-4,5,6,7-tetrahydro-1H-imidazo[4,5-c]pyridine-2-carboxamido)-[1,1′-biphenyl]-3-yl)carbamoyl)-1-methyl-1,4,6,7-tetrahydro-5H-imidazo[4,5-c]pyridin-5-yl)ethyl)bicyclo[2.2.1]heptane-1-carboxylic acid]	10 to 100 nM
≤ 5 nM	≤ 10 nM	10 to 100 nM	Cn1c(C(=O)Nc2cccc(-c3cccc(NC(=O)c4nc5c(n4C)CCN(CCC46CCC(C(=O)O)(CC4)C6)C5)c3Cl)c2Cl)nc2c1CCN(CCO)C2 [Example 15, 4-(2-(2-((2,2′-dichloro-3′-(5-(2-hydroxyethyl)-1-methyl-4,5,6,7-tetrahydro-1H-imidazo[4,5-c]pyridine-2-carboxamido)-[1,1′-biphenyl]-3-yl)carbamoyl)-1-methyl-1,4,6,7-tetrahydro-5H-imidazo[4,5-c]pyridin-5-yl)ethyl)bicyclo[2.2.1]heptane-1-carboxylic acid]	10 to 100 nM
≤ 5 nM	≤ 10 nM	10 to 100 nM	Cn1c(C(=O)Nc2cccc(-c3cccc(NC(=O)c4nc5c(n4C)CCN(CCC46CCC(C(=O)O)(CC4)C6)C5)c3Cl)c2Cl)nc2c1CCN(CCCO)C2 [Example 16, 4-(2-(2-((2,2′-dichloro-3′-(5-(3-hydroxypropyl)-1-methyl-4,5,6,7-tetrahydro-1H-imidazo[4,5-c]pyridine-2-carboxamido)-[1,1′-biphenyl]-3-yl)carbamoyl)-1-methyl-1,4,6,7-tetrahydro-5H-imidazo[4,5-c]pyridin-5-yl)ethyl)bicyclo[2.2.l]-heptane-1-carboxylic acid]	≤ 10 nM

— patent publication US10618916B2, “Heterocyclic compounds as immunomodulators” (Incyte Corporation, priority 2018, dated 2020)
